Assay [1] concerns the target T1, M1 central muscarinic cholinergic receptors (Mus musculus, UniProt P12657).
T1 construct: The intrastriatal injection of PZ into mice induces rotational behavior; from tissue; host or cells: right striatum of living female mice (Swiss, CD 1)
T1 sequence (P12657 1-460): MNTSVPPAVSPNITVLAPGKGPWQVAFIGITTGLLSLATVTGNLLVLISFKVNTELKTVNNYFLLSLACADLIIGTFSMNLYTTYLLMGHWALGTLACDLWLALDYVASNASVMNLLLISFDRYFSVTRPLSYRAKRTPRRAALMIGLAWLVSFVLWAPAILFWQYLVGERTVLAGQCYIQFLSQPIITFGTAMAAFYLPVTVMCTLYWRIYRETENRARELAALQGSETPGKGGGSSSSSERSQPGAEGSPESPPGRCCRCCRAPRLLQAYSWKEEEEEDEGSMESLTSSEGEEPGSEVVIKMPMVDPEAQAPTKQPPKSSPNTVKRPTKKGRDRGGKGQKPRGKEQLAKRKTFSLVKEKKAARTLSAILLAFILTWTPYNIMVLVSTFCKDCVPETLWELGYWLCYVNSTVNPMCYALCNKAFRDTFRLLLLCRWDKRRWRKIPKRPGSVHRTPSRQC
In words: Antagonism of rotational behavior induced by intrastriatal injection of pirenzepine in mice. It is filed as in vivo, mice (female, Swiss, CD 1). Conditions: ip, read-out: Pirenzepine antagonism ED50. As to the method: Pirenzepine (PZ) is a specific antagonist of M1 central muscarinic cholinergic receptors. The intrastriatal injection of PZ into mice induces rotational behavior. The antagonism of this behavior by the products according to the invention was studied.
The products according to the invention are injected intraperitoneally (i.p.) after solubilization in distilled water or suspension in a 5% solution of gum arabic. The control animals receive an injection of the pure solvent under the same conditions.
The animals used are female mice (Swiss, CD 1, Charles River, France) with a body weight of between 25 and 30 grams.
Pirenzepine is dissolved in a phosphate buffer; the pH of the solution is 6.
The products to be studied or their solvents are injected intraperitoneally, in a volume of 0.4 ml per 20 g of body weight, 15 minutes before a direct injection of pirenzepine at a dose of […] into the right striatum of the mouse, according to the method described by p.
The number of contralateral rotations (rotations in the opposite direction to the side injected) was counted for three 2-minute periods after the injection of pirenzepine: minutes 2 to 4, 8 to 10 and 13 to 15. Each treatment includes 3 to 4 doses and 10 animals per dose. For each treatment, the total number of rotations and the percentage antagonism compared with the control group are calculated.

In assay [2] the target is T2, M1-type muscarinic cholinergic receptor (Rattus norvegicus, UniProt P08482).
T2 sequence (P08482 1-460): T1 sequence (P12657 1-460) with P309S
The assay is described as follows: Test for affinity for the M1-type muscarinic cholinergic receptor: displacement of [3H]pirenzepine on rat hippocampus homogenate. It is filed as binding. Conditions: for IC50: rat hippocampus homogenate, 1 nM [3H]PZ, 2 h at 4° C., pH 7.40; for r = (M2 /M1): ratio of IC50 M2 (3H-NMS, guinea-pig ileum) to IC50 M1 (3H-pirenzepine, rat hippocampus). The source says:
(§1) The M1 -type receptors are concentrated in certain areas of the brain, such as the hippocampus, the cerebral cortex and the striatum, and also in the sympathetic ganglia. These binding sites can be selectively labeled with [^3 H]pirenzepine ([^3 H]PZ). The M2 -type receptors predominate in the heart and ileum and can be labeled with [^3 H]N-methylscopolamine ([^3 H]NMS). To determine the selectivity of our molecules towards the M1 and M2 sites, we studied their interaction in vitro with [^3 H]PZ and [^3 H]NMS bound with a high affinity to membranes of rat hippocampus and membranes of smooth muscle of guinea-pig ileum, respectively.
The interaction of the molecules with M1 -type muscarinic receptors was studied by in vitro measurement, on a homogenate of rat hippocampus, of the displacement of tritiated pirenzepine ([^3 H]PZ) from its specific binding sites. Aliquots (10 μl) of a 5% (w/v) homogenate of rat hippocampus in an Na2 HPO4 buffer (50 mM, pH 7.40) are incubated for 2 h at 4° C. in the presence of [^3 H]pZ ([…]; final concentration: 1 nM) and increasing concentrations of products to be studied. The final volume is 2 ml. The reaction is stopped by centrifugation for 10 min at 50,000 × g. After decantation and washing of the residues, the bound radioactivity is counted by liquid scintillation. The non-specific binding is determined in the presence of 10 μmol/l of atropine sulfate. The 50% inhibitory concentration (IC50) is determined graphically (Ref.: Watson J. D., Roeskoe W. R. and Yamamura H.1., Life Sci., 31, 2019-2029, 1982).
(§2) Table 4 indicates the affinities of the products of the invention for M1 and M2 receptors. The results are expressed as 50% inhibitory concentrations (IC50), i.e. the concentration (in μM) which causes a 50% displacement placement of the tritiated ligand bound to the membrane receptors. The IC50 for displacement of ^3 H-pirenzepine represents the affinity for the M1 receptor; the IC50 for displacement of 3H-NMS represents the affinity for the M2 receptor.
On the technique in general: In a radioligand displacement assay an active substance lowers the binding of a labelled ligand.

Assay [3] has as its target T3, M2-type muscarinic cholinergic receptor (Cavia porcellus, UniProt H0VRN8).
T3 construct: on a homogenate of smooth muscle of guinea-pig ileum; from tissue; host or cells: guinea-pig ileum smooth muscle homogenate
T3 sequence (H0VRN8 1-466): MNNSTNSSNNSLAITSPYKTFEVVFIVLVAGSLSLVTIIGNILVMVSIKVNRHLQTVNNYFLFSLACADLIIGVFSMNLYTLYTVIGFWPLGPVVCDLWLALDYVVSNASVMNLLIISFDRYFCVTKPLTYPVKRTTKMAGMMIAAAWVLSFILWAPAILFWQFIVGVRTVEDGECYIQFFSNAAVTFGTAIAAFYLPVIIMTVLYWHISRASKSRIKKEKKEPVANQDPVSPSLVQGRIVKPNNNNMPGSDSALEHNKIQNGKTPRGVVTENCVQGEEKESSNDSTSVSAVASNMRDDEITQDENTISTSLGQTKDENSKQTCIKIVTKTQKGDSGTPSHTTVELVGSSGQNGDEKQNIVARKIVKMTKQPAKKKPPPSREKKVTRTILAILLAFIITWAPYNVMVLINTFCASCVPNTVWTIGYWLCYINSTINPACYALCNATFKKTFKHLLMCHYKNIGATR
In words: Test for affinity for the M2-type muscarinic cholinergic receptor: displacement of [3H]N-methylscopolamine on smooth muscle of guinea-pig ileum. It is filed as binding. Conditions: guinea-pig ileum smooth muscle homogenate, 0.3 nM [3H]NMS, 20 min at 30° C., pH 7.5.
Excerpt: as §1
The interaction with M2 -type muscarinic receptors was studied by in vitro measurement, on a homogenate of smooth muscle of guinea-pig ileum, of the displacement of tritiated N-methylscopolamine ([^3 H]NMS) from its specific binding sites. Aliquots (50 μl) of a 0.625% (w/v) homogenate of smooth muscle of guinea-pig ileum in MEPES buffer (20 mM) containing NaCl (100 mM) and MgCl2 (10 mM) (final pH: 7.5) are incubated for 20 min at 30° C. in the presence of [^3 H]NMS ([…]; final concentration: 0.3 nM) and increasing concentrations of products to be tested. The final volume is 1 ml. The reaction is stopped by centrifugation for 5 min at 15,000 × g. The non-specific binding is determined in the presence of 10 μmol/l of atropine sulfate (Ref.: Hammer R., Berrie C. P., Birdsall N. I. M., Burgen A. S. V. and Hulme E. C., Nature, 283, 90-92, 1980; Hulme E. C., Birdsall N.1.M., Burgen A. S. V. and Mettha P., Mol. pharmacol., 14, 737-750, 1978).
as §2

The mark [4] stands for this setting: mice, i.p. 15 minutes before intrastriatal pirenzepine, 50% reduction in number of rotations.

SMILES strings stand for the structures. Positions count from the first letter of the chain named. Where a name gives a salt, the structure may show the parent alone. Read-outs that look alike come from different tables or passages of the source.

The ED50 is the dose at which the effect has come halfway, by size or by number of responders. For the compound `Cc1cc2c(cc1C)-c1nnc(NCCN3CCCC3)cc1CCC2` [SR 44650 A], in assay [1] (setting [4]), the ED50 came to 3 mg/kg.
In general, IC50 refers to the concentration needed to halve the response being measured. A low value points to greater potency in that assay. As for `CCN(CC)CCNc1cc2c(nn1)-c1cc(C)c(C)cc1CCC2.Cl.Cl` [SR 44663 A, 3-(2-Diethylaminoethylamino)-9,10-dimethyl-6,7-dihydro-5H-benzocyclohepta[5,6-c]pyridazine dihydrochloride], the IC50 in assay [2] worked out at 0.16 µM; in assay [3], 5 µM. Also, the “r = (M2 /M1)” value in assay [2] is reported as 37. Further, the ED50 in assay [1] turned out to be 1 mg/kg.
Turning to `Cc1cc2c(cc1C)-c1nnc(NCCN(C(C)C)C(C)C)cc1CCC2` [SR 44664 A], in assay [2], the IC50 is 0.18 µM and the “r = (M2 /M1)” value was 11. In assay [3], this compound displayed an IC50 of 2 µM. In addition, the ED50 in assay [1] (setting [4]) is 3 mg/kg.
With `c1ccc2c(c1)CCCc1cc(NCCN3CCCCC3)nnc1-2` [SR 44694 A], in assay [2], the IC50 was found to be 0.15 µM and the “r = (M2 /M1)” value came out at 24. For the same compound, the IC50 in assay [3] turned out to be 3.6 µM.
With `CCN(CC)CCNc1cc2c(nn1)-c1cc(Cl)c(Cl)cc1CCC2.Cl.Cl` [SR 44695 A, 9,10-Dichloro-3-(2-diethylaminoethylamino)-6,7-dihydro-5H-benzocyclohepta[5,6-c]pyridazine dihydrochloride], in assay [2], the IC50 is 0.45 µM and the “r = (M2 /M1)” value was found to be 10. This compound showed an IC50 in assay [3] of 4.5 µM.
As to `CN(C)CCNc1cc2c(nn1)-c1cc(Cl)c(Cl)cc1CCC2` [SR 44696 A], in assay [2], the IC50 was found to be 0.7 µM and the “r = (M2 /M1)” value is listed as 10. This compound displayed an IC50 in assay [3] of 6.5 µM.
The matching figures for `CC(C)N(CCNc1cc2c(nn1)-c1cc([N+](=O)[O-])ccc1CCC2)C(C)C` [SR 44697 A]: 0.3 µM, 10 and 3 µM.
Turning to `CCN(CC)CCNc1cc2c(nn1)-c1cc(C)c(C)cc1CCCC2.Cl.Cl` [SR 44703 A, 3-(2-Diethylaminoethylamino)-10,11-dimethyl-5,6,7,8-tetrahydrobenzocycloocta[5,6-c]pyridazine dihydrochloride], in assay [2], the IC50 was found to be 0.1 µM and the “r = (M2 /M1)” value came out at 40. This compound also gave an IC50 in assay [3] of 4 µM.
Regarding `Clc1cc2c(cc1Cl)-c1nnc(NCCN3CCCCC3)cc1CCC2` [SR 44705 A], the IC50 in assay [2] was 0.18 µM; in assay [3], 3 µM. Moreover, in assay [2], the “r = (M2 /M1)” value is recorded as 16.
Regarding `CCCCN(CCCC)CCNc1cc2c(nn1)-c1cc(C)c(C)cc1CCC2` [SR 44706 A], in assay [2], the IC50 was 3.6 µM and the “r = (M2 /M1)” value was 8. In assay [3], this compound yielded an IC50 of 30 µM.
As for `O=C1CN(CCNc2cc3c(nn2)-c2ccccc2CCC3)CCO1` [SR 95696 A, 3-Z-(2-Oxomorpholino)ethylamino]-6,7-dihydro-5H-benzocyclohepta[5,6-c]pyridazine hydrochloride], in assay [1] (setting [4]), the ED50 was 3 mg/kg.
Regarding `CCN(CC)CCNc1cc2c(nn1)-c1cc(N)ccc1CCC2` [SR 95776 A, 10-Amino-3-(Z-diethylaminoethylamino)-6,7-dihydro-5H-benzocyclohepta[5,6-c]pyridazine dihydrochloride], in assay [2], the IC50 turned out to be 0.2 µM and the “r = (M2 /M1)” value stood at 10. The IC50 in assay [3] worked out at 2 µM.
Take `c1ccc2c(c1)CCCc1cc(NCCCN3CCOCC3)nnc1-2` [SR 95817 A]: the ED50 in assay [1] (setting [4]) stood at 2 mg/kg.
The same measure, in the same setting: for `OCCNCCNc1cc2c(nn1)-c1ccccc1CCC2` [SR 95819 A, 3-[2-(2-hydroxyethylamino)ethylamino]-6,7-dihydro-5H-benzocyclohepta[5,6-c]pyridazine] the value was 10 mg/kg.
`Cc1cc2ccccc2c2nnc(NCCN3CCOCC3)cc12` [SR 96057 A, 5-3-(2-morpholinoethylamino)benzo[h]cinnoline dihydrochloride]: the figures for the IC50 in assay [2] and in assay [3] were 3 µM and 43 µM, respectively. Further, the “r = (M2 /M1)” value in assay [2] is recorded as 14.
The matching figures for `Cl.Cl.O=[N+]([O-])c1cccc2c1CCCc1cc(NCCN3CCOCC3)nnc1-2` [SR 96100 A, 3-(2-Morpholinoethylamino)-8-nitro-6,7-dihydro-5H-benzocyclohepta[5,6-c]pyridazine dihydrochloride]: 0.4 µM, 44 µM and 110.
Take `Cl.Cl.Fc1ccc2c(c1)CCCc1cc(NCCN3CCOCC3)nnc1-2` [SR 96108 A, 9-Fluoro-3 (2-morpholinoethylamino)-6,7-dihydro-5H-benzocyclohepta[5,6-c]pyridazine dihydrochloride]: in assay [2], the IC50 stood at 1 µM and the “r = (M2 /M1)” value stood at 40. The IC50 in assay [3] came to 40 µM.

The values are drawn from patent publication US4977152A, “Novel tricyclic derivatives which are agonists of cholinergic receptors, and drugs in which they are present” (Societe Anonyme: Sanofi, priority 1986, dated 1990).
